Legend:
Format in all cases: in vivo
[1] = system: Echinochloa oryzoides (Ard.) Fritsch.; test: Preemergence weed control under flooded paddy conditions, ECHORC (Watergrass (Calif.)); details: flooded paddy; for herbicidal effect rating, ECHORC / ECHORC herbicidal rating: preemergence; for ECHORC: preemergence weeds, herbicidal effect rating 0-9, three to four weeks after treatment; as to herbicidal effect rating, ECHORC: meaning of each grade not given here
Cyperus iria = test: Preemergence weed control under flooded paddy conditions, CYPIR (Rice Flatsedge); details: flooded paddy; for herbicidal effect rating, CYPIR / CYPIR herbicidal rating: preemergence; for CYPIR: preemergence weeds, herbicidal effect rating 0-9, three to four weeks after treatment; as to herbicidal effect rating, CYPIR: meaning of each grade not given here
[2] = system: Cyperus serotinus, Rottb.; test: Preemergence weed control under flooded paddy conditions, CYPSE (Flatsedge); details: for CYPSE: preemergence weeds, herbicidal effect rating 0-9, three to four weeks after treatment; as to herbicidal effect rating, CYPSE: meaning of each grade not given here
[3] = system: Monochoria vaginalis, Presl.; test: Preemergence weed control under flooded paddy conditions, MOOVA (Monochoria); details: flooded paddy; for herbicidal effect rating, MOOVA / MOOVA herbicidal rating: preemergence; for MOOVA: preemergence weeds, herbicidal effect rating 0-9, three to four weeks after treatment; as to herbicidal effect rating, MOOVA: meaning of each grade not given here
Sagittaria pygmaea, L. = test: Preemergence weed control under flooded paddy conditions, SAGPY (Arrowhead (Pygmaea)); details: flooded paddy; for herbicidal effect rating, SAGPY / SAGPY herbicidal rating: preemergence; for SAGPY: preemergence weeds, herbicidal effect rating 0-9, three to four weeks after treatment; as to herbicidal effect rating, SAGPY: meaning of each grade not given here
[4] = Rate 0.0320 kg/ha, rated three to four weeks after treatment
[5] = Rate 0.0620 kg/ha, rated three to four weeks after treatment
[6] = Rate 0.1250 kg/ha, rated three to four weeks after treatment
[7] = Rate 0.2500 kg/ha, rated three to four weeks after treatment
[8] = Rate 0.0320 kg/ha, preemergence, rated three to four weeks after treatment
[9] = Rate 0.1250 kg/ha, preemergence, rated three to four weeks after treatment
[10] = Rate 0.2500 kg/ha, preemergence, rated three to four weeks after treatment
[11] = 0.0320 kg/ha, rated three to four weeks after treatment
[12] = 0.0620 kg/ha, rated three to four weeks after treatment
[13] = 0.1250 kg/ha, rated three to four weeks after treatment
[14] = 0.2500 kg/ha, rated three to four weeks after treatment
[15] = Rate 0.0620 kg/ha, preemergence, rated three to four weeks after treatment
[16] = Rate 0.0320 kg/ha, rated 3-4 weeks after treatment
[17] = Rate 0.0620 kg/ha, rated 3-4 weeks after treatment
[18] = Rate 0.1250 kg/ha, rated 3-4 weeks after treatment
[19] = Rate 0.2500 kg/ha, rated 3-4 weeks after treatment

Compound | herbicidal effect rating, ECHORC [1, 4] | herbicidal effect rating, ECHORC [1, 5] | herbicidal effect rating, ECHORC [1, 6] | herbicidal effect rating, ECHORC [1, 7] | herbicidal effect rating, CYPIR (Cyperus iria; [4]) | herbicidal effect rating, CYPIR (Cyperus iria; [5]) | herbicidal effect rating, CYPIR (Cyperus iria; [6]) | herbicidal effect rating, CYPIR (Cyperus iria; [7]) | herbicidal effect rating, CYPSE [2, 8] | herbicidal effect rating, CYPSE [2, 9] | herbicidal effect rating, CYPSE [2, 10] | herbicidal effect rating, MOOVA [3, 4] | herbicidal effect rating, MOOVA [3, 5] | herbicidal effect rating, MOOVA [3, 6] | herbicidal effect rating, MOOVA [3, 7] | herbicidal effect rating, SAGPY (Sagittaria pygmaea, L.; [4]) | herbicidal effect rating, SAGPY (Sagittaria pygmaea, L.; [5]) | herbicidal effect rating, SAGPY (Sagittaria pygmaea, L.; [6]) | herbicidal effect rating, SAGPY (Sagittaria pygmaea, L.; [7]) | herbicidal effect rating, CYPSE [2, 15] | other results
COc1ccc(COC(=O)C(C)(C)c2nsc3ccc(-n4c(=O)cc(C(F)(F)F)n(C)c4=O)cc23)cc1 [Example 397, 1,2-Benzisothiazole-3-acetic acid, 5-[3,6-dihydro-3-methyl-2,6-dioxo-4-(trifluoromethyl)-1(2H)-pyrimidinyl]-alpha,alpha-dimethyl-, p-methoxybenzyl ester] | 9.0 | 9.0 | 9.0 | 9.0 | 6.0 | 7.0 | 9.0 | 9.0 | 0.0 | 0.0 | 0.0 | 9.0 | 9.0 | 9.0 | 9.0 | 4.0 | 5.0 | 5.0 | 5.0 |  | 
COC(=O)COc1ccc(C)cc1-c1nsc2cc(Cl)c(-n3c(=O)cc(C(F)(F)F)n(C)c3=O)cc12 [Example 443, Acetic acid, {{2-{6-chloro-5-[3,6-dihydro-3-methyl-2,6-dioxo-4-(trifluoromethyl)-1(2H)-pyrimidinyl]-1,2-benzisothiazol-3-yl}-p-tolyl}oxy}-, methyl ester] |  |  |  |  |  |  |  |  |  |  |  |  |  |  |  |  |  |  |  |  | ECHORC ([1]; 0.0320 kg/ha): 6.0; ECHORC ([1]; 0.0620 kg/ha): 5.0; ECHORC ([1]; 0.1250 kg/ha): 7.0; ECHORC ([1]; 0.2500 kg/ha): 9.0; CYPIR (Cyperus iria; 0.0320 kg/ha): 4.0; CYPIR (Cyperus iria; 0.0620 kg/ha): 6.0; CYPIR (Cyperus iria; 0.1250 kg/ha): 7.0; CYPIR (Cyperus iria; 0.2500 kg/ha): 7.0; CYPSE ([2]; 0.0320 kg/ha): 0.0; CYPSE ([2]; 0.0620 kg/ha): 0.0; CYPSE ([2]; 0.1250 kg/ha): 0.0; MOOVA ([3]; 0.0320 kg/ha): 5.0; MOOVA ([3]; 0.0620 kg/ha): 6.0; MOOVA ([3]; 0.1250 kg/ha): 7.0; MOOVA ([3]; 0.2500 kg/ha): 7.0; SAGPY (Sagittaria pygmaea, L.; 0.0320 kg/ha): 3.0; SAGPY (Sagittaria pygmaea, L.; 0.0620 kg/ha): 3.0; SAGPY (Sagittaria pygmaea, L.; 0.1250 kg/ha): 4.0; SAGPY (Sagittaria pygmaea, L.; 0.2500 kg/ha): 5.0
Cn1c(C(F)(F)F)cc(=O)n(-c2ccc3snc(COC(=O)Cc4ccc(Cl)cc4)c3c2)c1=O [Example 452, 2,4(1H,3H)-Pyrimidinedione, 3-[3-(hydroxymethyl)-1,2-benzisothiazol-5-yl]-1-methyl-6-(trifluoromethyl)-, (p-chlorophenyl)acetate (ester)] |  |  |  |  |  |  |  |  |  |  |  |  |  |  |  |  |  |  |  |  | ECHORC ([1]; 0.0320 kg/ha): 0.0; ECHORC ([1]; 0.0620 kg/ha): 3.0; ECHORC ([1]; 0.1250 kg/ha): 3.0; ECHORC ([1]; 0.2500 kg/ha): 7.0; CYPIR (Cyperus iria; 0.0320 kg/ha): 4.0; CYPIR (Cyperus iria; 0.0620 kg/ha): 6.0; CYPIR (Cyperus iria; 0.1250 kg/ha): 9.0; CYPIR (Cyperus iria; 0.2500 kg/ha): 9.0; CYPSE ([2]; 0.0320 kg/ha): 0.0; CYPSE ([2]; 0.2500 kg/ha): 7.0; MOOVA ([3]; 0.0320 kg/ha): 9.0; MOOVA ([3]; 0.0620 kg/ha): 9.0; MOOVA ([3]; 0.1250 kg/ha): 9.0; MOOVA ([3]; 0.2500 kg/ha): 9.0; SAGPY (Sagittaria pygmaea, L.; 0.0320 kg/ha): 0.0; SAGPY (Sagittaria pygmaea, L.; 0.0620 kg/ha): 0.0; SAGPY (Sagittaria pygmaea, L.; 0.1250 kg/ha): 0.0; SAGPY (Sagittaria pygmaea, L.; 0.2500 kg/ha): 2.0
Cn1c(C(F)(F)F)cc(=O)n(-c2ccc3snc(COC(=O)C4CC4)c3c2)c1=O [Example 496, 2,4(1H,3H)-Pyrimidinedione, 3-[3-(hydroxymethyl)-1,2-benzisothiazol-5-yl]-1-methyl-6-(trifluoromethyl)-, cyclopropanecarboxylate (ester)] |  |  |  |  |  |  |  |  |  |  |  |  |  |  |  |  |  |  |  |  | ECHORC herbicidal rating [1, 11]: 4.0; ECHORC herbicidal rating [1, 12]: 4.0; ECHORC herbicidal rating [1, 13]: 6.0; ECHORC herbicidal rating [1, 14]: 7.0; CYPIR herbicidal rating (Cyperus iria; [11]): 0.0; CYPIR herbicidal rating (Cyperus iria; [12]): 7.0; CYPIR herbicidal rating (Cyperus iria; [13]): 7.0; CYPIR herbicidal rating (Cyperus iria; [14]): 9.0; CYPSE herbicidal rating ([2]; 0.2500 kg/ha, preemergence, rated three to four weeks after treatment): 7.0; MOOVA herbicidal rating [3, 11]: 0.0; MOOVA herbicidal rating [3, 12]: 6.0; MOOVA herbicidal rating [3, 13]: 6.0; MOOVA herbicidal rating [3, 14]: 8.0; SAGPY herbicidal rating (Sagittaria pygmaea, L.; [11]): 0.0; SAGPY herbicidal rating (Sagittaria pygmaea, L.; [12]): 0.0; SAGPY herbicidal rating (Sagittaria pygmaea, L.; [13]): 3.0; SAGPY herbicidal rating (Sagittaria pygmaea, L.; [14]): 6.0
Cn1c(C(F)(F)F)cc(=O)n(-c2ccc3snc(CSc4ccccc4)c3c2)c1=O [Example 392, 2,4(1H,3H)-Pyrimidinedione, 1-methyl-3-{3-[(phenylthio)methyl]-1,2-benzisothiazol-5-yl}-6-(trifluoromethyl)-] | 5.0 | 7.0 | 9.0 | 9.0 | 0.0 | 0.0 | 3.0 | 7.0 | 0.0 | 0.0 | 0.0 | 6.0 | 7.0 | 7.0 | 9.0 | 0.0 | 0.0 | 0.0 | 0.0 | 0.0 | 
CCOC(=O)C1CCC(OC(=O)COc2ccc(C)cc2-c2nsc3ccc(-n4c(=O)cc(C(F)(F)F)n(C)c4=O)cc23)CC1 (single isomer, unassigned; isomer a) [Example 524, Acetic acid, {{2-{5-[3,6-dihydro-3-methyl-2,6-dioxo-4-(trifluoromethyl)-1(2H)-pyrimidinyl]-1,2-benzisothiazol-3-yl}-p-tolyl}oxy}-, ester with ethyl 4-hydroxycyclohexanecarboxylate, isomer A] |  |  |  |  |  |  |  |  |  |  |  |  |  |  |  |  |  |  |  |  | herbicidal effect rating, ECHORC [1, 16]: 7.0; herbicidal effect rating, ECHORC [1, 17]: 9.0; herbicidal effect rating, ECHORC [1, 18]: 9.0; herbicidal effect rating, ECHORC [1, 19]: 9.0; herbicidal effect rating, CYPIR (Cyperus iria; [16]): 2.0; herbicidal effect rating, CYPIR (Cyperus iria; [17]): 2.0; herbicidal effect rating, CYPIR (Cyperus iria; [18]): 4.0; herbicidal effect rating, CYPIR (Cyperus iria; [19]): 7.0; herbicidal effect rating, CYPSE ([2]; Rate 0.0320 kg/ha, preemergence, rated 3-4 weeks after treatment): 0.0; herbicidal effect rating, CYPSE ([2]; Rate 0.0620 kg/ha, preemergence, rated 3-4 weeks after treatment): 0.0; herbicidal effect rating, CYPSE ([2]; Rate 0.1250 kg/ha, preemergence, rated 3-4 weeks after treatment): 2.0; herbicidal effect rating, CYPSE ([2]; Rate 0.2500 kg/ha, preemergence, rated 3-4 weeks after treatment): 6.0; herbicidal effect rating, MOOVA [3, 16]: 9.0; herbicidal effect rating, MOOVA [3, 17]: 9.0; herbicidal effect rating, MOOVA [3, 18]: 9.0; herbicidal effect rating, MOOVA [3, 19]: 9.0; herbicidal effect rating, SAGPY (Sagittaria pygmaea, L.; [16]): 0.0; herbicidal effect rating, SAGPY (Sagittaria pygmaea, L.; [17]): 0.0; herbicidal effect rating, SAGPY (Sagittaria pygmaea, L.; [18]): 0.0; herbicidal effect rating, SAGPY (Sagittaria pygmaea, L.; [19]): 0.0
Cn1c(C(F)(F)F)cc(=O)n(-c2ccc3snc(C(Cc4ccccc4)S(C)(=O)=O)c3c2)c1=O (stereo not drawn) [Example 604, 2,4(1H,3H)-Pyrimidinedione, 1-methyl-3-{3-[alpha(methylsulfonyl)phenethyl]-1,2-benzisothiazol-5-yl}-6-(trifluoromethyl)-] | 7.0 | 7.0 | 7.0 | 9.0 | 0.0 | 3.0 | 4.0 | 6.0 | 0.0 | 0.0 | 0.0 | 5.0 | 6.0 | 7.0 | 8.0 | 0.0 | 0.0 | 0.0 | 0.0 | 0.0 | 
C=CCONC(=O)c1nsc2ccc(-n3c(=O)cc(C(F)(F)F)n(C)c3=O)cc12 [Example 399, 1,2-Benzisothiazole-3-carboxamide, N-(allyloxy)-5-[3,6-dihydro-3-methyl-2,6-dioxo-4-(trifluoromethyl)-1(2H)-pyrimidinyl]-] | 0.0 | 0.0 | 2.0 | 3.0 | 0.0 | 2.0 | 7.0 | 8.0 | 0.0 | 0.0 | 0.0 | 6.0 | 7.0 | 8.0 | 9.0 | 0.0 | 0.0 | 0.0 | 0.0 | 0.0 | 

Reference: patent publication EP0908457B1, “3-(1,2-benzisothiazol- and isoxazol-5-Y1)-2,4(1H,3H)-pyrimidinedione or thione and 3-(1,2-benzisothiazol- and isoxazol-5-y1)-4(3H)-pyrimidinone or thione herbicidal agents” (BASF AKTIENGESELLSCHAFT, priority 1997, dated 1999)
